This note sets out measurements from PubChem BioAssay AID1259407 (Chemical Carcinogenesis Research Information System (CCRIS), 2018).

In the data set the test system is CCRIS mutagenicity, Ames/micronucleus/aberration tests. Briefly: CCRIS mutagenicity studies.
The mark [1] stands for this setting: Test System: AMES SALMONELLA TYPHIMURIUM, Strain/Indicator: TA98, Metabolic Activation: NONE, Method: STANDARD PLATE.
The mark [2] stands for this setting: Test System: AMES SALMONELLA TYPHIMURIUM, Strain/Indicator: TA98, Metabolic Activation: RAT, LIVER, S-9, AROCLOR 1254, Method: STANDARD PLATE.
[3] abbreviates: Test System: AMES SALMONELLA TYPHIMURIUM, Strain/Indicator: TA100, Metabolic Activation: NONE, Method: STANDARD PLATE.
Where [4] appears, read: Test System: AMES SALMONELLA TYPHIMURIUM, Strain/Indicator: TA100, Metabolic Activation: RAT, LIVER, S-9, AROCLOR 1254, Method: STANDARD PLATE.
Setting [5] is: Test System: AMES SALMONELLA TYPHIMURIUM, Strain/Indicator: TA1537, Metabolic Activation: NONE, Method: STANDARD PLATE.
The mark [6] stands for this setting: Test System: AMES SALMONELLA TYPHIMURIUM, Strain/Indicator: TA98, Metabolic Activation: NONE, Method: PREINCUBATION
Setting [7] is: Test System: AMES SALMONELLA TYPHIMURIUM, Strain/Indicator: TA98, Metabolic Activation: RAT, LIVER, S-9, AROCLOR 1254, Method: PREINCUBATION
Setting [8] is: Test System: AMES SALMONELLA TYPHIMURIUM, Strain/Indicator: TA100, Metabolic Activation: NONE, Method: PREINCUBATION
Where [9] appears, read: Test System: AMES SALMONELLA TYPHIMURIUM, Strain/Indicator: TA100, Metabolic Activation: RAT, LIVER, S-9, AROCLOR 1254, Method: PREINCUBATION
Where [10] appears, read: Test System: AMES SALMONELLA TYPHIMURIUM, Strain/Indicator: TA1535, Metabolic Activation: NONE, Method: PREINCUBATION
[11] abbreviates: Test System: AMES SALMONELLA TYPHIMURIUM, Strain/Indicator: TA1537, Metabolic Activation: NONE, Method: PREINCUBATION

Activity calls are given as the source filed them. No rule for the calls is given here.

On to `COc1c(Cl)ccc(Cl)c1C(=O)O`, for which the mutagenic call (Test System: AMES SALMONELLA TYPHIMURIUM, Strain/Indicator: TA97, Metabolic Activation: NONE, Method: STANDARD PLATE) is “inactive; negative”; the mutagenic call (Test System: AMES SALMONELLA TYPHIMURIUM, Strain/Indicator: TA97, Metabolic Activation: RAT, LIVER, S-9, AROCLOR 1254, Method: STANDARD PLATE) is “inactive; negative”; the mutagenic call under setting [1] is “inactive; negative”; the mutagenic call under setting [2] was “inactive; negative”; the mutagenic call under setting [3] is “inactive; negative”; the mutagenic call under setting [4] was “inactive; negative”. The mutagenic call reads like this: (Test System: AMES SALMONELLA TYPHIMURIUM, Strain/Indicator: TA102, Metabolic Activation: NONE, Method: STANDARD PLATE) “inactive; negative”; (Test System: AMES SALMONELLA TYPHIMURIUM, Strain/Indicator: TA102, Metabolic Activation: RAT, LIVER, S-9, AROCLOR 1254, Method: STANDARD PLATE) “inactive; negative”; (Test System: UDS HUMAN LYMPHOCYTES, Strain/Indicator: THY INCORP (NON-S-PHASE), Metabolic Activation: NONE, Method: LIQUID SCINTILLATION COUNTING) “inactive; negative”; (Test System: UDS HUMAN LYMPHOCYTES, Strain/Indicator: THY INCORP (NON-S-PHASE), Metabolic Activation: RAT, LIVER, S-9, Method: LIQUID SCINTILLATION COUNTING) “active; positive”.

In the case of `c1ccc2c(c1)ccc1nc3c(ccc4ccccc43)cc12`, under “Test System: AMES SALMONELLA TYPHIMURIUM, Strain/Indicator: TA100, Metabolic Activation: RAT, LIVER, S-9, PHENOBARBITAL AND 5,6-BENZOFLAVONE, Method: STANDARD PLATE”, the mutagenic call is “active; positive”.

With `Cc1cc([N+](=O)[O-])c(C)c2c1[nH]c1ccc(O)cc12`, the mutagenic call is, setting by setting: under setting [1], “active; positive”; (Test System: AMES SALMONELLA TYPHIMURIUM, Strain/Indicator: TA98, Metabolic Activation: RAT LIVER S-9, AROCLOR 1254, Method: STANDARD PLATE) “inactive; negative”; under setting [3], “inactive; negative”; (Test System: AMES SALMONELLA TYPHIMURIUM, Strain/Indicator: TA100, Metabolic Activation: RAT LIVER S-9, AROCLOR 1254, Method: STANDARD PLATE) “inactive; negative”; under setting [5], “active; positive”; (Test System: AMES SALMONELLA TYPHIMURIUM, Strain/Indicator: TA1537, Metabolic Activation: RAT LIVER S-9, AROCLOR 1254, Method: STANDARD PLATE) “active; positive”. In addition, the mutagenic call by setting is: (Test System: AMES SALMONELLA TYPHIMURIUM, Strain/Indicator: TA1977, Metabolic Activation: NONE, Method: STANDARD PLATE) “active; positive”; (Test System: AMES SALMONELLA TYPHIMURIUM, Strain/Indicator: TA1977, Metabolic Activation: RAT LIVER S-9, AROCLOR 1254, Method: STANDARD PLATE) “active; positive”.

Take `COc1cc(N)c(OC)cc1N`: the mutagenic call under setting [1] was “inactive; negative”; the mutagenic call under setting [2] was “active; positive”; the mutagenic call under setting [3] is “inactive; negative”; the mutagenic call under setting [4] was “active; positive”; the mutagenic call (Test System: AMES SALMONELLA TYPHIMURIUM, Strain/Indicator: TA1535, Metabolic Activation: NONE, Method: STANDARD PLATE) was “inactive; negative”; the mutagenic call (Test System: AMES SALMONELLA TYPHIMURIUM, Strain/Indicator: TA1535, Metabolic Activation: RAT, LIVER, S-9, AROCLOR 1254, Method: STANDARD PLATE) was “inactive; negative”. The mutagenic call is “inactive; negative” under setting [5]; “active; positive” (Test System: AMES SALMONELLA TYPHIMURIUM, Strain/Indicator: TA1537, Metabolic Activation: RAT, LIVER, S-9, AROCLOR 1254, Method: STANDARD PLATE); “active; positive” (Test System: AMES SALMONELLA TYPHIMURIUM, Strain/Indicator: TA1538, Metabolic Activation: NONE, Method: STANDARD PLATE); “active; positive” (Test System: AMES SALMONELLA TYPHIMURIUM, Strain/Indicator: TA1538, Metabolic Activation: RAT, LIVER, S-9, AROCLOR 1254, Method: STANDARD PLATE).

For the compound `OCCNCCO`, the mutagenic call is “inactive; negative” (End Point: IN VITRO CHROMOSOMAL ABERRATIONS, Test System: CHO CELLS, Metabolic Activation: NONE); “inactive; negative; weak response at highest dose” (End Point: IN VITRO CHROMOSOMAL ABERRATIONS, Test System: CHO CELLS, Metabolic Activation: RAT, LIVER, S-9, AROCLOR 1254); “inactive; negative” (Test System: AMES SALMONELLA TYPHIMURIUM, Strain/Indicator: TA98, Metabolic Activation: HAMSTER, LIVER, S-9, AROCLOR 1254, Method: PREINCUBATION); “inactive; negative” under setting [6]; “inactive; negative” under setting [7]; “inactive; negative” (Test System: AMES SALMONELLA TYPHIMURIUM, Strain/Indicator: TA100, Metabolic Activation: HAMSTER, LIVER, S-9, AROCLOR 1254, Method: PREINCUBATION). The mutagenic call reads like this: under setting [8], “inactive; negative”; under setting [9], “inactive; negative”; (Test System: AMES SALMONELLA TYPHIMURIUM, Strain/Indicator: TA1535, Metabolic Activation: HAMSTER, LIVER, S-9, AROCLOR 1254, Method: PREINCUBATION) “inactive; negative”; under setting [10], “inactive; negative”; (Test System: AMES SALMONELLA TYPHIMURIUM, Strain/Indicator: TA1535, Metabolic Activation: RAT, LIVER, S-9, AROCLOR 1254, Method: PREINCUBATION) “inactive; negative”; (Test System: AMES SALMONELLA TYPHIMURIUM, Strain/Indicator: TA1537, Metabolic Activation: HAMSTER, LIVER, S-9, AROCLOR 1254, Method: PREINCUBATION) “inactive; negative”. Besides, the mutagenic call reads like this: under setting [11], “inactive; negative”; (Test System: AMES SALMONELLA TYPHIMURIUM, Strain/Indicator: TA1537, Metabolic Activation: RAT, LIVER, S-9, AROCLOR 1254, Method: PREINCUBATION) “inactive; negative”.

For `Nc1ccc(O)c(C(=O)O)c1`, the mutagenic call was “inactive; negative” under setting [6]; “inactive; negative” (Test System: AMES SALMONELLA TYPHIMURIUM, Strain/Indicator: TA98, Metabolic Activation: S-9, Method: PREINCUBATION); “inactive; negative” under setting [8]; “inactive; negative” (Test System: AMES SALMONELLA TYPHIMURIUM, Strain/Indicator: TA100, Metabolic Activation: S-9, Method: PREINCUBATION); “inactive; negative” under setting [10]; “inactive; negative” (Test System: AMES SALMONELLA TYPHIMURIUM, Strain/Indicator: TA1535, Metabolic Activation: S-9, Method: PREINCUBATION). For the same compound, the mutagenic call reads like this: under setting [11], “inactive; negative”; (Test System: AMES SALMONELLA TYPHIMURIUM, Strain/Indicator: TA1537, Metabolic Activation: S-9, Method: PREINCUBATION) “inactive; negative”; (Test System: E. COLI, Strain/Indicator: WP2 UVRA, Metabolic Activation: NONE, Method: PREINCUBATION) “inactive; negative”; (Test System: E. COLI, Strain/Indicator: WP2 UVRA, Metabolic Activation: S-9, Method: PREINCUBATION) “inactive; negative”.

For `COc1cc(OC)c2c(c1)O[C@@H]1OC=C[C@H]21`, the mutagenic call is “inactive; negative” under setting [6], “active; positive” under setting [7], “active; positive” under setting [8] and “active; positive” under setting [9].
